# Assay results reported in US20250002555A1, “METHODS FOR THERAPY AND REHABILITATION OF MOVEMENT DISORDERS” (City University of Hong Kong, priority 2023, published 2025).
# Where “and” joins values, the source holds several entries; their conditions need not be identical. Identical values can stand only once.
# How the values were obtained:
# [1] = system: neurons in the motor cortex layer 2/3; assay: Calcium imaging of layer 2/3 of the motor cortex during single pellet reaching task training; type: in vivo, C57BL/6 mice; conditions: for activated population activity (peak activity minus baseline activity): C57BL/6 mice injected with L365,260 (0.4 mg/kg i.p.); for pairwise Hausdorff distance of trajectories / trial-to-trial population activity correlation (Pearson correlation coefficient): C57BL/6 mice injected with L365,260
# Protocol: (§1) The task has two periods, shaping and training. […] Only attempts by the dominant hand are counted.
# The surface virus infusion process for the calcium imaging is performed as described previously with mild modification^5. A wide-tip glass pipette is prepared by a micropipette puller and then cut, polished, and flame-treated to make it even and smooth. Mice are […] injected with dexamethasone (0.2 mg/kg, s.c.) and carprofen (5 mg/kg, s.c.) to protect the brain from swelling and inflammation. Three hours later, mice are anesthetized with pentobarbital. The periosteum covered on the skull is removed, cleaned, and dried with 100% alcohol to prevent the skull and tissues from growing. A 3×3 mm^2 window above the motor cortex contralateral to the dominant hand is opened with a hand drill, and the bone debris is carefully removed with fine forceps. After that, the dura around the injection area is removed (open a dura hole of about 1 mm^2) to expose the pial tissue for virus infusion. The tip of the pipette tightly covered the brain surface by lowering 400-500 μm, and 0.6 μl virus is infused at the speed of 0.06 μl/min. A 3×3 cover glass (thickness, around 150 μm) is attached to the brain surface, and gentle pressure is applied to keep the cover glass at the level same as the skull. The edge of the cover glass is sealed with superglue. After the glue is totally hardened, the skin is stretched back and sutured.
# 2-3 weeks after cranial window implantation, the scalp over the skull is totally removed with surgical scissors. […] The cover glass surface is gently cleaned with Ringer's solution and lens paper, and the regrowth of periosteum on the skull is removed with fine forceps. Before baseplate implantation, the skull is dried with 100% alcohol, covered with Metbondglue, and a thick layer of dental acrylic except for the cover glass for observation.
# The LED is turned on and the focal distance of the electrowetting lens is adjusted to 0 on the software. The position of the miniscope is adjusted until the brain tissue is observed in the data acquisition system. Dental acrylic is used to fix the baseplate to the acrylic cap covering the skull around the window. Once the dental acrylic has hardened, the miniscope is removed, and a metal cap is attached to the baseplate to protect the cover glass window.
# After the implantation of the baseplate, a miniscope model is attached to the baseplate, and the mouse is placed in the chamber to acclimate to the weight of the miniscope for 20 minutes for 3 days. The LED laser and focal plate are slightly adjusted until the cells with fluorescent protruded from the background. A web camera is also connected to the data acquisition software and recorded the behavior movement of the animal simultaneously. An imaging field of about 1.0×1.0 mm^2 (resolution: 608×608 pixels) video at approximately 10 min long is recorded. To clearly figure out the role of CCK played in the neuronal plasticity of the motor cortex from CCK^−/− mice, C57BL/6 mice as well as C57BL/6 mice that intraperitoneal injection of CCKBR antagonist, L365,260 (0.4 mg/kg, Cat #2767, Bio-Techne, https://www.bio-techne.com, USA). Raw AVI videos are firstly spatially down-sample by two folds to reduce the size of the videos by Fiji (Image J, https://imagej.net/imagej-wiki-static/Fiji/Downloads, USA). Then a MATLAB algorithm, NoRMCorre, is applied for piecewise rigid motion correction before data analysis. The calcium signals are extracted with the MATLAB code of Constrained Nonnegative Matrix Factorization for microEndoscopic (CNMF-E) (code availability: https://github.com/zhoupc/CNMF_E) 6. The scaled fluorescent calcium signal overtime is extracted as C_raw. The raw data is then deconvolved. […] Timestamps from both the behavior videos and the calcium imaging videos are aligned to find out the time window when the mouse perform the reaching task. […]
# [2] = target: T1, CCKBRs in the motor cortex (Mus musculus, UniProt P56481); assay: Single pellet reaching task with CCKBR antagonist injected into the motor cortex; type: in vivo, C57BL/6 mice; conditions: for success rate: 1 μl 20 μM into motor cortex via cannula before training
# T1 construct: from tissue; host or cells: motor cortex of living C57BL/6 mice
# T1 sequence (P56481 1-453): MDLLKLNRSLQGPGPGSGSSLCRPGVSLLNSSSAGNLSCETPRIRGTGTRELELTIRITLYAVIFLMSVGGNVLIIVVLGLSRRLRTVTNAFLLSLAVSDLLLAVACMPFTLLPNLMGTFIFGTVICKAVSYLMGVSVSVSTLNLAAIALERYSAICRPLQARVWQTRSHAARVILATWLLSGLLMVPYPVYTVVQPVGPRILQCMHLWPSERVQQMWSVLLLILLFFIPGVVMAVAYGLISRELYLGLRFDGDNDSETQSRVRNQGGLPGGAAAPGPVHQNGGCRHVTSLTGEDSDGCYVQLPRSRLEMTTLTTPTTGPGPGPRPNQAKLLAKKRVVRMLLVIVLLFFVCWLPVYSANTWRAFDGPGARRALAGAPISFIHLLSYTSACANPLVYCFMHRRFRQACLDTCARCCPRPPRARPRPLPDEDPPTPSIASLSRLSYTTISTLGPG
# Protocol: as §1
# C57BL/6 mice are implanted a cannula in the motor cortex (coordinates: AP, 1.4 mm, ML, −/+1.6 mm, DV, 0.2 mm) contralateral to the dominant hand of the mice, followed by three days of recovery. Mice are grouped into antagonist and vehicle groups. L365,260 (CCKBR antagonist) (1 μl, 20 μM, Cat #2767, Bio-Techne, https://www.bio-techne.com/, USA) or vehicle (0.1% DMSO dissolved in ACSF) is injected into the motor cortex through the cannula with the flow rate of 100 nl/min pumped by a syringe pump (Hamilton, http://hamiltoninstrument.com, USA), before the mice are placed into the chamber for the single pellet reaching task training.
# [3] = system: CCK^−/− mice; assay: Rescue of motor learning ability of CCK^−/− mice with CCK4, single pellet reaching task; type: in vivo; conditions: for success rate: CCK4 0.45 mg/kg i.p. every day before training; for miss rate: CCK4 0.45 mg/kg i.p.
# From the text: as §1
# CCK4, a tetrapeptide derived from the peptide of CCK is selected as a potential drug to rescue the motor learning defect caused by the lack of CCK, because CCK4 remains the function to activate the CCK receptor but has a much smaller molecule than CCK8s or CCK58, making it transmit through the brain-blood barrier easily and smoothly^10-11. Therefore, intraperitoneal injection of the CCK4 is a simple and easily available way to rescue CCK lack caused motor learning defects. After shaping, CCK^−/− mice are injected intraperitoneally with CCK4 (0.45 mg/kg, Cat #ab141328, Abcam, https://securedrtest.abcam.com, UK) or vehicle before training every day.
# [4] = system: motor cortex brain slices from the CCK^−/− mice; assay: Brain slice electrophysiology, fEPSP/LTP after HFS in motor cortex slices; type: cell-based; conditions: CCK4 500 nM, % of baseline
# Protocol: The slice electrophysiology experiment is carried out following the methods reported previously^9. In the experiments, 6-8 weeks old C57BL/6 or CCK^−/− mice are anesthetized with isoflurane in a small chamber. The mouse head is cut, and the brain is rapidly removed and put into an oxygenated (95% O2-5% CO2) artificial cerebral spinal fluid (ACSF) cold bath containing 26 mM of NaHCO3, 2 mM of CaCl2), 1.25 mM of KH2PO4, 1.25 mM of MgSO4, 124 mM of NaCl, 3 mM of KCl and 10 mM of glucose, pH 7.35-7.45. The brain is sectioned from the middle line into two hemispheres. The portions with the brain areas of the motor cortex are trimmed and glued on the ice-cold stage of a vibrating tissue slicer (VT1000S, Leica, https://www.gmi-inc.com/product/leica-vt1000s-microtome, Germany). Coronal sections of slices containing the motor cortex (300 μm thick) are trimmed and gently transferred into an ACSF containing chamber, which is put in a water bath at 28° C. and oxygen blowing continuously. […]
# After recovery, the motor cortex slice is covered by the recording electrodes. […] The electrophysiological data are extracted and analyzed with offline software, Mobius software. For quantification of the LTP data, the initial amplitudes of fEPSPs are normalized and expressed as percentage changes over the averaged baseline activity. […]
molecule,measurement,setting,value
"Cc1cccc(NC(=O)N[C@@H]2N=C(c3ccccc3)c3ccccc3N(C)C2=O)c1 [L365,260]",activated population activity (peak activity minus baseline activity),[1]; Day 1,0.0218±0.0094
same,activated population activity (peak activity minus baseline activity),[1]; Day 6,0.0354±0.0080
same,pairwise Hausdorff distance of trajectories,[1]; Day 1,0.7012±0.0594 cm
same,trial-to-trial population activity correlation (Pearson correlation coefficient),[1]; Day 1,0.12±0.07
same,pairwise Hausdorff distance of trajectories,[1]; Day 6,0.6712±0.0659 cm
same,trial-to-trial population activity correlation (Pearson correlation coefficient),[1]; Day 6,0.12±0.05
same,success rate,[2]; Day 3,16.80±2.83%
same,success rate,[2]; Day 4,18.16±3.12%
same,"success rate of pellet retrieval, change through the 6-day training period",[2]; infused into motor cortex every day before training,not improved
same,"drop rate, change Day 1 vs. Day 5",[2]; motor cortex injection,no significant changes
same,miss rate,"[2]; motor cortex injection, Day 1",27.34%±9.85%
same,"number of miss, change with learning","[2]; motor cortex injection, Day 1 vs. Day 5",no significant decrease
same,miss rate,"[2]; motor cortex injection, Day 5",24.75%±2.34%
same,no-grasp rate,"[2]; motor cortex injection, Day 5",34.69%±4.12%
Trp-Met-Asp-Phe-NH2 [CCK4],success rate,[3]; Day 1,19.17%±3.03%
same,success rate,"[3]; Day 5, 0.45 mg/kg",30.58%±4.18% and 30.51%±4.18%
same,success rate,[3]; Day 6,31.50%±4.43%
same,miss rate,[3]; Day 1,25.47%±4.03%
same,miss rate,[3]; Day 5,13.13%±2.80
same,brain-blood barrier passage,[3]; concluded from behavioural rescue after i.p. injection,could cross the brain-blood barrier
same,average normalized fEPSP amplitude,[4]; after HFS (50-60 min),118.89%±6.09%
same,average normalized fEPSP amplitude,[4]; before HFS (−10-0 min),100.28%±0.47%
